# Data from US20150315218A1, “SALTS OF PRODRUGS OF PIPERAZINE AND SUBSTITUTED PIPERIDINE ANTIVIRAL AGENTS” (Bristol-Myers Squibb Company, priority 2004, published 2015).
# Like-named read-outs stand apart in the source and are kept apart here.
# Assay: Single-dose toxicokinetic and tolerability study of prodrugs in dogs
# Assay type: in vivo, dog
# Conditions: for half-life: read-out: T½ (converted)
# Description: A multi-phase study was conducted to evaluate the tolerability of the prodrug, Iab (monolysine salt) at dosages of 24, 90, or 240 mg/kg (free acid, molar equivalent to 19, 71, or 190 mg/kg of parent IVa, respectively) and the toxicokinetics of lab and IVa (4). Iab was administered to two female dogs/group once daily either as an aqueous solution (24 or 90 mg/kg) or dry-filled capsules (24, 90 [once and twice daily] or 240 mg/kg). The endpoints were: clinical signs, body weight, food consumption, and plasma toxicokinetics of lab and IVa. In all cases, a 1-week washout period was used between doses for all phases of the study. […]
# On day 1, Icb was administered to one dog/sex/group once daily in dry-filled capsules at the above dosages. A 1-week washout period was used between doses in the study. On day 8, Icb was administered to one dog/sex/group once daily as an aqueous solution at 25 mg/kg or twice daily in dry-filled capsules at 46 or 125 mg/kg BID.
# [1] = IVa, Iab 24 mg/kg Solution, Dogs #1201, #1202
# [2] = IVa, Iab 90 mg/kg Solution, Dogs #3201, #3202
# [3] = Table 14: 90 mg/kg, Dogs #1201, #1202, 90 mg/kg
# [4] = Table 14: 240 mg/kg, Dogs #2201, #2202, 240 mg/kg
# [5] = female, dog, plasma, po, 24 mg/kg, IVa, Iab 24 mg/kg Dry-filled capsule, Dogs #4201, #4202
# [6] = female, dog, plasma, po, 24 mg/kg, IVa, Iab 24 mg/kg Solution, Dogs #1201, #1202
# [7] = female, dog, plasma, po, 90 mg/kg, IVa, Iab 90 mg/kg Solution, Dogs #3201, #3202
# [8] = female, dog, plasma, po, 90 mg/kg, Table 14: 90 mg/kg, Dogs #1201, #1202
# [9] = female, dog, plasma, po, 240 mg/kg, Table 14: 240 mg/kg, Dogs #2201, #2202
smiles,measurement,setting,value
"COc1ncc(OC)c2c(C(=O)C(=O)N3CCN(C(=O)c4ccccc4)CC3)c[nH]c12 [IVa, N-(benzoyl)-N′-[(4,7-dimethoxy-6-azaindol-3-yl)-oxoacetyl]piperazine]",AUC0-∞,[1],330 µM·h
same,T½,[1],3.1 h
same,concentration at 24 h,"IVa, Iab 24 mg/kg Solution, Dogs #1201, #1202, read-out: C24h",0.33 µM
same,AUC0-∞,[2],838 µM·h
same,T½,[2],3.9 h
same,concentration at 24 h,"IVa, Iab 90 mg/kg Solution, Dogs #3201, #3202, read-out: C24h",2.2 µM
same,AUC0-∞,[3],960 µM·h
same,T½,[3],2.9 h
same,Cmax,"Table 14: 240 mg/kg (190 IVa equiv.), Formulation Solution, Dogs #2201, #2202, 240 mg/kg",189 µM
same,AUC0-∞,[4],1584 µM·h
same,T½,[4],4.5 h
same,Cmax,"Table 14: 180 (90 BID) mg/kg (142 IVa equiv.), Dry-filled capsule, Dogs #3201, #3202",248 µM
same,AUC0-∞,"Table 14: 180 (90 BID) mg/kg, Dogs #3201 (AUC from zero to 24 h), #3202",2485 µM·h
same,concentration at 24 h,"Table 14: 180 (90 BID) mg/kg, Dogs #3201, #3202, read-out: C24h",50 µM
same,Cmax,"Table 14: IVa in female dogs, 90 mg/kg (71 IVa equiv.), Formulation Solution, Dogs #1201, #1202, 90 mg/kg",152 µM
same,time post-dose at which mean Cmax of parent was achieved,"dogs, once daily (QD) dosing of prodrug",1 to 2 h
same,concentration at 24 h,"female, dog, plasma, oral, 24 mg/kg, IVa, Iab 24 mg/kg Dry-filled capsule, Dogs #4201, #4202, read-out: C24 h",1.4 µM
same,concentration at 24 h,"female, dog, plasma, oral, 24 mg/kg, IVa, Iab 24 mg/kg Solution, Dogs #1201, #1202, read-out: C24 h",0.61 µM
same,concentration at 24 h,"female, dog, plasma, oral, 90 mg/kg, IVa, Iab 90 mg/kg Solution, Dogs #3201, #3202, read-out: C24 h",3.2 µM
same,concentration at 24 h,"female, dog, plasma, oral, Table 14: 180 (90 BID) mg/kg, Dogs #3201, #3202, read-out: C24 h",34 µM
same,Cmax,"female, dog, plasma, po, 24 mg/kg, IVa in female dogs, Iab 24 mg/kg (19 IVa equiv.), Dry-filled capsule, Dogs #4201, #4202",79.7 µM
same,Cmax,"female, dog, plasma, po, 24 mg/kg, IVa in female dogs, Iab 24 mg/kg (19 IVa equiv.), Solution, Dogs #1201, #1202",72.3 µM
same,AUC(0-inf),[5],486 µM·h
same,half-life,[5],4.2 h
same,AUC(0-inf),[6],465 µM·h
same,half-life,[6],3.2 h
same,Cmax,"female, dog, plasma, po, 90 mg/kg, IVa in female dogs, Iab 90 mg/kg (71 IVa equiv.), Solution, Dogs #3201, #3202",124 µM
same,AUC(0-inf),[7],844 µM·h
same,half-life,[7],4.4 h
same,AUC(0-inf),[8],1740 µM·h
same,half-life,[8],3.6 h
same,Cmax,"female, dog, plasma, po, 90 mg/kg, Table 14: IVa in female dogs, 90 mg/kg (71 IVa equiv.), Formulation Solution, Dogs #1201, #1202",214 µM
same,Cmax,"female, dog, plasma, po, 240 mg/kg, Table 14: 240 mg/kg (190 IVa equiv.), Formulation Solution, Dogs #2201, #2202",172 µM
same,AUC(0-inf),[9],1190 µM·h
same,half-life,[9],3.7 h
same,Cmax,"female, dog, plasma, po, Table 14: 180 (90 BID) mg/kg (142 IVa equiv.), Dry-filled capsule, Dogs #3201, #3202",311 µM
same,AUC(0-inf),"female, dog, plasma, po, Table 14: 180 (90 BID) mg/kg, Dogs #3201 (AUC from zero to 24 h), #3202",3300 µM·h
